# Test results taken from patent publication US20030181401A1, “Insulin secretion promoter” (KYOWA HAKKO KOGYO CO., LTD., priority 2002, published 2003).
# Assays:
# Assay type in all cases: in vivo
# [1] = tested on: C57BL/KsJ-db/db Jcl mice (model animals of Type II diabetes mellitus); experiment: Test Example 1: serum insulin in glucose tolerance test after 7-day oral dosing
# Procedure: Male 9-week-old C57BL/KsJ-db/db Jcl (abbreviated as “db/db” hereinafter) mice (Clea Japan, Inc.), which are model animals of Type II diabetes mellitus, were divided in groups each consisting of 6 mice, and fed a commercially available feed CE-2 (Clea Japan, Inc.) for one week, so as to accustom the animals to the environment.
# After acclimation, an aqueous 10% solution of 2′-fucosyllactose (sometimes abbreviated as “2′-FL” hereinafter) was orally administered to the mice at 200 mg (2′-FL)/kg body weight in the morning and at 300 mg (2′-FL) /kg body weight in the evening. The same volume of Saline was administered to the control group. The aqueous 2′-FL solution and the saline were both dosed daily to the mice for 7 days.
# During the dosing period, CE-2 was-given together with drinking water ad libitum.
# After 18-hour starvation from the final dosing on day 7, an aqueous 40% glucose solution was orally administered to 2 g (glucose)/kg body weight to the mice, to perform glucose tolerance test. Zero minute and 30 minutes after glucose loading, blood was taken from tail vein. […] Blood was centrifuged (4° C., 10000 rpm, 10 minutes), to obtain serum.
# Insulin in the serum recovered was assayed by enzyme immunoassay using Lebis Insulin kit (for rats-T) (Shibayagi, Co., Ltd.) as follows. The kit reacts with insulin in the sera of both rats and mice.
# First, the serum recovered was diluted with the buffer attached to the kit to 5 fold. 10 μl of the diluted serum was taken and divided in the wells of the antibody-immobilized plate into which 100 μl of a biotin-bound anti-insulin antibody was added, for reaction at ambient temperature for 2 hours. After the reaction, the plate was rinsed four times with the rinse solution attached to the kit. After rinsing, 100 μl of the peroxidase-avidin bound material was divided in the wells, for reaction at ambient temperature for 30 minutes. After reaction, the plate was rinsed four times with the rinse solution. After rinsing, 100 μl of the chromogenic solution was divided in the wells, for chromogenic reaction for 30 minutes, followed by addition of 100 μl of the reaction termination solution to each well. The absorbance of the reaction solution in the wells at 450 nm was read with a plate reader.
# Herein, a standard curve was prepared by using the 200 ng/ml standard insulin solution (rat) attached to the kit as a standard solution to dilute the standard solution appropriately with the buffer solution attached to the kit for the same reaction as for the serum, and plotting the relation between the concentration and the absorbance (450 nm).
# Based on the prepared standard curve and the absorbance from the reaction with the serum, the insulin concentration in the serum was determined.
# ICR mice [2] = experiment: Test Example 8: serum insulin in glucose tolerance test after single oral 2′-FL dose
# Procedure: Groups of male 8-week-old ICR mice (Japan SLC, Inc.) each consisting of 6 mice were fed CE-2 (Clea Japan, Inc.) for one week, so as to accustom the animals to the environment.
# Then, the mice accustomed were fasted for 18 hours. An aqueous 2% solution of 2′-FL was orally administered to the mice to 100 mg (2′-FL)/kg body weight, while 0.9% saline was administered orally to the control group. Two hours after the 2′-FL dosing, an aqueous 40% glucose solution was orally administered to 2 g (glucose)/kg body weight to the mice, for glucose tolerance test. […] Blood glucose was assayed with a simple-type blood glucose assay apparatus Medisafe Reader GR-101 (Terumo, Co., Ltd.), while the serum was collected.
# Insulin in the serum recovered was assayed by enzyme immunoassay using Morinaga ultra-sensitive rat insulin assay kit (Morinaga Biochemical Research Institute, Co., Ltd.) described below. 15 μl of the serum was divided in the wells of an antibody-immobilized plate, where 85 μl of the diluent attached to the kit was divided therein, for reaction at 4° C. for 2 hours. […] The absorbance of each well at 450 nm (principal wave length) and 655 nm (sub wave length) was measured with BioRad Model 3550 microplate reader (BioRad Laboratories, Inc.). […] Based on the prepared standard curve, the serum insulin concentration corresponding to the absorbance during the reaction with the serum was determined.
# ICR mice [3] = experiment: Test Example 6: serum glucose after intravenous saccharide with simultaneous oral glucose loading
# Procedure: Groups of male 9-week-old ICR mice (Japan SLC, Inc.) each consisting of 7 mice were fed CE-2 (Clea Japan, Inc.) for one week, so as to accustom the animals to the environment. Then, the mice were fasted for 18 hours.
# An aqueous 10% solution of 2′-FL or NeuAc was intravenously administered to the mice to 500 mg (saccharide)/kg body weight, while an aqueous 40% glucose solution was orally administered simultaneously to 2 g (glucose)/kg body weight, to the mice. To the control group, physiological saline was administered intravenously, while glucose was orally administered simultaneously to 2 g/kg body weight. Zero minute and 30 minutes after glucose loading, blood was taken from a tail vein. […] Blood was centrifuged (4° C., 10000 rpm, 10 minutes), to obtain serum.
# Furthermore, the glucose concentration in the serum recovered was also assayed. The glucose concentration was assayed, using Glucose CII-TEST WAKO (WAKO Pure Chemical Industries, Ltd.). 2 μl of the recovered serum was placed in a 96-well plate, followed by addition of 200 μl of the chromogenic solution attached to the kit, for incubation at 37° C. for 10 minutes. After incubation, the absorbance at 490 nm was assayed with a plate reader. Herein, a standard curve was prepared by using aqueous 500 mg/dl glucose solution as the standard solution to dilute the standard solution appropriately for the same reaction as for the serum, and plotting the relation between the concentration and the absorbance (490 nm). Based on the prepared standard curve and the absorbance from the reaction with the serum, the glucose concentration in the serum was determined.
substance,measurement,setting,value
2′-fucosyllactose [2′-FL],insulin concentration after glucose loading compared with the control group (in words),[1]; continuous daily oral dosing,increased
same,"Serum insulin concentration after glucose loading, Zero minute","[1]; oral 200 mg/kg morning + 300 mg/kg evening, 7 days, 18-hour starvation, glucose 2 g/kg oral, zero minute, mean ± SD",6.7 ± 3.3 ng/mL
same,"Serum insulin concentration after glucose loading, 30 minutes","[1]; oral 200 + 300 mg/kg daily, 7 days, glucose 2 g/kg oral, 30 minutes, mean ± SD",8.3 ± 3.9 ng/mL
same,"Serum insulin concentration after glucose loading, 120 minutes","[1]; oral 200 + 300 mg/kg daily, 7 days, glucose 2 g/kg oral, 120 minutes, mean ± SD",26.1 ± 12.8 ng/mL
same,Serum insulin concentration after glucose loading,"ICR mice [2]; ICR mice fasted 18 hours, 100 mg/kg single oral dose two hours before glucose 2 g/kg oral, 60 minutes, mean ± SD",82.6 ± 91.7 pg/mL
same,serum insulin concentration after glucose loading compared with the control group (in words),"ICR mice [2]; ICR mice, single oral dosing 120 minutes before glucose dosing",increased
same,"Serum glucose concentration after glucose loading, 30 minutes","ICR mice [3]; ICR mice fasted 18 hours, 500 mg/kg intravenous with simultaneous glucose 2 g/kg oral, 30 minutes, mean ± SD",331.4 ± 68.6 mg/dL
same,"Serum glucose concentration after glucose loading, 120 minutes","ICR mice [3]; ICR mice fasted 18 hours, 500 mg/kg intravenous with simultaneous glucose 2 g/kg oral, 120 minutes, mean ± SD",169.2 ± 29.5 mg/dL
same,"Serum glucose concentration after glucose loading, Zero minute","ICR mice [3]; ICR mice fasted 18 hours, 500 mg/kg intravenous with simultaneous glucose 2 g/kg oral, zero minute, mean ± SD",102.4 ± 23.3 mg/dL
same,increase of the serum glucose concentration compared with the control group (in words),"ICR mice [3]; ICR mice, intravenous dosing",suppressed
